Test results from patent US6924302B2, “Substituted triazole diamine derivatives as kinase inhibitors” (Ortho McNeil Pharmaceutical, Inc., priority 2000, dated 2005).

Legend:
Type in all cases: biochemical
[1] = molecular target: T1, CDK1:Cyclin-B (Homo sapiens, UniProt P06493); assay: CDK1 Screening Assay; details: Table 1; read-out: CDK1 IC50
T1 construct: purchased New England Biolabs 6020; host or cells: insect cells
Procedure: (§1) 70 μL of the kinase reaction mixture was dispensed into the well of a streptavidin coated FlashPlate™ (Cat. # SMP103, NEN, Boston, Mass.). Then 1 μL of test compound stock in 100% DMSO was added to the wells resulting in a final concentration of 1% DMSO in the reaction with a 100 μl final reaction volume. Next, CDK1:Cyclin-B protein was diluted in 50 mM Tris-HCl pH=8.0, 0.1% BSA at a concentration of 1 ng per μL and 30 μl (30 ng enzyme per test well) was added to each well to initiate the reaction. The reaction was incubated for one hour at 30° C. At the end of the 1-hour incubation, the reaction was terminated by aspirating the reaction mixture from the plate and washing the wells twice with PBS containing 100 mM EDTA. The histone-H1 biotinylated peptide substrate became immobilized on the Flashplate™ and the incorporation of ^33P-γ-ATP was measured by reading the plate on a scintillation counter. Inhibition of the enzymatic activity of CDK1 was measured by observing a reduced amount of ^33P-γ-ATP incorporated into the immobilized peptide.
Assays to test compound inhibition of other kinases were preformed using methods that measure the amount of phosphorylation of a biotinylated peptide substrate. Biotinylated peptide substrates were selected from the literature as appropriate for the enzyme being evaluated. […] Assay conditions vary slightly for each protein kinase, for example, insulin receptor kinase requires 10 mM MnCl2 for activity and Calmodulin-dependent protein kinase requires calmodulin and 10 mM CaCl2. These assay conditions are known in the art. The reaction mixture was dispensed into the wells of a streptavidin coated Flashplate and 1 μl drug stock in 100% DMSO was added to a 100 μl reaction volume resulting in a final concentration of 1% DMSO on the reaction. Enzyme was diluted in 50 mM Tris-HCl pH=8.0, 0.1% BSA and add to each well. The reaction was incubated for one hour at 30° C. in the presence of compound. After one hour the reaction mix was aspirated from the plate and the plate was washed with PBS containing 100 mM EDTA. The plate was read on a scintillation counter to determine ^33P-γ-ATP incorporated into the immobilized peptide. Test compounds were assayed in duplicate at 8 concentrations [100 uM, 10 uM, 1 uM, 100 nM, 10 nM, 1 nM, 100 pM, 10 pM]. A maximum and minimum signal for the assay was determined on each plate. The IC50 was calculated from the dose response curve of the percent inhibition of the maximum signal in the assay according to the formula [max signal—background/test compound signal—background (100)=% inhibition] by graphing the percent inhibition against the log concentration of test compound. Known inhibitor compounds appropriate for the kinase being assayed were also included on each plate. […]

[2] = molecular target: T2, VEGF-R (vascular endothelial growth factor receptor-2) (Rattus norvegicus, UniProt O08775); assay: VEGF-R Screening Assay; details: Table 1; read-out: VEGF-R IC50
T2 construct: polyhistidine (6xHIS) (N)
T2 sequence (O08775 786-1343): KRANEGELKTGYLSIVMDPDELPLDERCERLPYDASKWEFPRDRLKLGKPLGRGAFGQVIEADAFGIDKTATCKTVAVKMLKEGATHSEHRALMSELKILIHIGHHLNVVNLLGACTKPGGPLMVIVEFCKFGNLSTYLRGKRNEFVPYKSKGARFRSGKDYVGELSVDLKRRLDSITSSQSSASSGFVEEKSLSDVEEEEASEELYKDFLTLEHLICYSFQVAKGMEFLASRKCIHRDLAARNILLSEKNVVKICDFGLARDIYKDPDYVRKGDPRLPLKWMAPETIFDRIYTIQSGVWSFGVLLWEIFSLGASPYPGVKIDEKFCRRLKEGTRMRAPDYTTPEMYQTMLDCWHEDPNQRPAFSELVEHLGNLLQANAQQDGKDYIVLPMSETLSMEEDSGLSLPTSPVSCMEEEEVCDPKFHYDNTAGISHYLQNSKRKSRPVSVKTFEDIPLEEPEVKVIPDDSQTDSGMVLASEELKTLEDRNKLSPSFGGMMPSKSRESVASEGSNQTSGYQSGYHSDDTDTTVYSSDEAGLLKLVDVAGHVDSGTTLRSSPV
Procedure: as §1, with “a 100 μL final reaction” for “a 100 μl final reaction”, “volume. Next, soluble rat tyrosine kinase containing an N-terminal 6×HIS tag was diluted” for “volume. Next, CDK1:Cyclin-B protein was diluted”, “concentration of 5 ng per” for “concentration of 1 ng per”, “and 30 μL (150 ng enzyme” for “and 30 μl (30 ng enzyme”, “EDTA. The PLC1 biotinylated peptide” for “EDTA. The histone-H1 biotinylated peptide”, “activity of the VEGF-R was measured” for “activity of CDK1 was measured”
(§2) Assays to test compound inhibition of other kinases were preformed using methods that measure the amount of phosphorylation of a biotinylated peptide substrate. Biotinylated peptide substrates were selected from the literature as appropriate for the enzyme being evaluated. […] Assay conditions vary slightly for each protein kinase, for example, insulin receptor kinase requires 10 mM MnCl2 for activity and Calmodulin-dependent protein kinase requires calmodulin and 10 mM CaCl2. These assay conditions are known in the art. The reaction mixture was dispensed into the wells of a streptavidin coated Flashplate and 1 μl drug stock in 100% DMSO was added to a 100 μl reaction volume resulting in a final concentration of 1% DMSO on the reaction. Enzyme was diluted in 50 mM Tris-HCl pH=8.0, 0.1% BSA and add to each well. The reaction was incubated for one hour at 30° C. in the presence of compound. After one hour the reaction mix was aspirated from the plate and the plate was washed with PBS containing 100 mM EDTA. The plate was read on a scintillation counter to determine ^33P-γ-ATP incorporated into the immobilized peptide. Test compounds were assayed in duplicate at 8 concentrations [100 uM, 10 uM, 1 uM, 100 nM, 10 nM, 1 nM, 100 pM, 10 pM]. A maximum and minimum signal for the assay was determined on each plate. The IC50 was calculated from the dose response curve of the percent inhibition of the maximum signal in the assay according to the formula [max signal—background/test compound signal—background (100)=% inhibition] by graphing the percent inhibition against the log concentration of test compound. Known inhibitor compounds appropriate for the kinase being assayed were also included on each plate.
(§3) CDK2 in complex with cyclin A is commercially available (Upstate Biotech, Lake Placid, N.Y.). The CDK4 complex was composed of a mouse CDK4 protein and a mouse Cyclin D1 protein (The mouse CDK4 protein was genetically fused to an N-terminal Flag-epitope tag and the mouse Cyclin D1 protein was fused with an N-terminal AU-1 epitope tag. The genes encoding these proteins were transferred to commercially available baculoviral vectors. The recombinant CDK4/D1 complex was then made by co-infecting commercially available insect cells with viruses carrying these two constructs). […] ERK-1 protein (Discontinued from Calbiochem). EGFR (epidermal growth factor receptor) is purified from human A431 cell membranes (Sigma, St. Louis, Mo., Cat.# E3641).

[3] = molecular target: T3, HER2 (human epidermal growth factor receptor-2) (Homo sapiens, UniProt P04626); assay: Kinase Selectivity Assay HER2; details: Table 1; read-out: HER2 IC50
T3 construct: begins at amino acid 676 followed by the remainder of the HER2 cytoplasmic domain; polyhistidine (N)
T3 sequence (P04626 676-1255 limits assumed): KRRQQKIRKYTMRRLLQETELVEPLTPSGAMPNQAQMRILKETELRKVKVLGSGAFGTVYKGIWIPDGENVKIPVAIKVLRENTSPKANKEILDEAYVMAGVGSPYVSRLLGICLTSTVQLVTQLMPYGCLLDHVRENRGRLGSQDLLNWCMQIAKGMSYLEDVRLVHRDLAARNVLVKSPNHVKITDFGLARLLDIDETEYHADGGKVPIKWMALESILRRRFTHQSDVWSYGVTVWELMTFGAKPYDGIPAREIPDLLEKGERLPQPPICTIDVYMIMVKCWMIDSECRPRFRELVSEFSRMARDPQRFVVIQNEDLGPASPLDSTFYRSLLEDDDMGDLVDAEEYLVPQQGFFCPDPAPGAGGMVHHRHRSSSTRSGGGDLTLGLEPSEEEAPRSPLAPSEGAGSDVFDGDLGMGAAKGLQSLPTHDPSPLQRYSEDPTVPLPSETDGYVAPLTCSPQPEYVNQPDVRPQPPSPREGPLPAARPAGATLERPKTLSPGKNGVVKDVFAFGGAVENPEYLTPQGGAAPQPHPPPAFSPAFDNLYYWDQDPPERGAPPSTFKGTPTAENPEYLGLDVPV
Procedure: as §2, §3

T1 sequence (P06493 whole entry): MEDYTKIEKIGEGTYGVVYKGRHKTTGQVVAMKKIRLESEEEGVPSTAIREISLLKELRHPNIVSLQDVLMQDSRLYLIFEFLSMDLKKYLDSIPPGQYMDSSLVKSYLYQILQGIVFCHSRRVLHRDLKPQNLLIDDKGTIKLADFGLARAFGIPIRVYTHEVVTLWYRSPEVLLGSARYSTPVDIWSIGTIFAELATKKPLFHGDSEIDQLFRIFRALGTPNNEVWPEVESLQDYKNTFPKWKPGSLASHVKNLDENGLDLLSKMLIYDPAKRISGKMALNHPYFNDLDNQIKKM
T1 sequence (P14635 whole entry partner): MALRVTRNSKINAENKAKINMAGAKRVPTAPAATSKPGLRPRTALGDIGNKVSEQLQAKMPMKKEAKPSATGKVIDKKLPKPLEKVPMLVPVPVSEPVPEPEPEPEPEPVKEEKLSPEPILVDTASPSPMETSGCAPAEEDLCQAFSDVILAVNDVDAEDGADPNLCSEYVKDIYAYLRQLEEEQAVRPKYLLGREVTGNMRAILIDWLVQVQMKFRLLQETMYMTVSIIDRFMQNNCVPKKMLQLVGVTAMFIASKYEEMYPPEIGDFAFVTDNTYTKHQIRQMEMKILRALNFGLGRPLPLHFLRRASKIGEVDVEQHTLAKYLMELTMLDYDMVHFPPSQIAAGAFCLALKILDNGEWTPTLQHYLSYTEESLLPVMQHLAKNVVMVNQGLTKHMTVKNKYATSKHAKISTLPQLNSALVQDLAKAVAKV

Row | SMILES | IC50 [1] | IC50 [2] | IC50 [3]
1 | Nc1nc(Nc2ccc(S(N)(=O)=O)cc2)nn1C(=O)c1cc2ccccc2s1 [Cpd 31, 4-[[5-amino-1-(benzo[b]thien-2-ylcarbonyl)-1H-1,2,4-triazol-3-yl]amino]-benzenesulfonamide] | 0.03 µM | 0.044 µM | –
2 | Nc1nc(Nc2ccc(S(N)(=O)=O)cc2)nn1C(=O)/C=C/c1cccs1 [Cpd 42, 4-[[5-amino-1-[(2E)-1-oxo-3-(2-thienyl)-2-propenyl]-1H-1,2,4-triazol-3-yl]amino]-benzenesulfonamide] | 0.134 µM | 0.443 µM | –
3 | Nc1nc(Nc2ccc(S(N)(=O)=O)cc2)nn1C(=O)Cc1c(F)cccc1F [Cpd 43, 4-[[5-amino-1-[(2,6-difluorophenyl)acetyl]-1H-1,2,4-triazol-3-yl]amino]-benzenesulfonamide] | 0.0873 µM | 0.628 µM | –
4 | Nc1nc(Nc2ccc(S(N)(=O)=O)cc2)nn1C(=O)C1CCCCCC1 [Cpd 45, 4-[[5-amino-1-(cycloheptylcarbonyl)-1H-1,2,4-triazol-3-yl]amino]-benzenesulfonamide] | 0.0137 µM | 0.355 µM | –
5 | CC1CCC(C(=O)n2nc(Nc3ccc(S(N)(=O)=O)cc3)nc2N)CC1 (centres unmarked) [Cpd 46, 4-[[5-amino-1-[(4-methylcyclohexyl)carbonyl]-1H-1,2,4-triazol-3-yl]amino]-benzenesulfonamide] | 0.0358 µM | 0.453 µM | –
6 | CC1CCCCC1C(=O)n1nc(Nc2ccc(S(N)(=O)=O)cc2)nc1N (centres unmarked) [Cpd 47, 4-[[5-amino-1-[(2-methylcyclohexyl)carbonyl]-1H-1,2,4-triazol-3-yl]amino]-benzenesulfonamide] | 0.0586 µM | 2.52 µM | –
7 | Nc1nc(Nc2ccc(S(N)(=O)=O)cc2)nn1C(=O)c1ccc(-c2ccccn2)s1 [Cpd 49, 4-[[5-amino-1-[[5-(2-pyridinyl)-2-thienyl]carbonyl]-1H-1,2,4-triazol-3-yl]amino]-benzenesulfonamide] | > 1 µM | > 1 µM | > 1 µM
8 | Nc1nc(Nc2ccc(S(N)(=O)=O)cc2)nn1C(=O)c1sccc1-n1cccc1 [Cpd 50, 4-[[5-amino-1-[[3-(1H-pyrrol-1-yl)-2-thienyl]carbonyl]-1H-1,2,4-triazol-3-yl]amino]-benzenesulfonamide] | 0.12 µM | 0.19 µM | 0.2 µM
9 | CC(C)(C)OC(=O)/C=C/c1ccc(C(=O)n2nc(Nc3ccc(S(N)(=O)=O)cc3)nc2N)s1 [Cpd 52, 3-[5-[[5-amino-3-[[4-(aminosulfonyl)phenyl]amino]-1H-1,2,4-triazol-1-yl]carbonyl]-2-thienyl]-(2E)-2-propenoic acid-1,1-dimethylethyl ester] | 0.035 µM | 0.11 µM | 1.47 µM
10 | Nc1nc(Nc2ccc(S(N)(=O)=O)cc2)nn1C(=O)c1ccc(C#Cc2ccccc2)s1 [Cpd 53, 4-[[5-amino-1-[[5-(phenylethynyl)-2-thienyl]carbonyl]-1H-1,2,4-triazol-3-yl]amino]-benzenesulfonamide] | > 1 µM | > 1 µM | > 1 µM
11 | Cc1cccc(C)c1C(=O)n1nc(Nc2ccc(S(N)(=O)=O)cc2)nc1N [Cpd 56, 4-[[5-amino-1-(2,6-dimethylbenzoyl)-1H-1,2,4-triazol-3-yl]amino]-benzenesulfonamide] | 0.49 µM | 20 µM | 4.17 µM
12 | Nc1nc(Nc2ccc(S(N)(=O)=O)cc2)nn1S(=O)(=O)c1c(F)cccc1F [Cpd 68, 4-[[5-amino-1-[(2,6-difluorophenyl)sulfonyl]-1H-1,2,4-triazol-3-yl]amino]-benzenesulfonamide] | 0.66 µM | 5.14 µM | –

More lines, in order of falling IC50 [1], values ahead:

Row | IC50 [1] | IC50 [2] | IC50 [3] | SMILES
13 | 10.5 µM | 55 µM | – | Nc1nc(Nc2ccc(S(N)(=O)=O)cc2)nn1C(=O)c1csnn1 [Cpd 37, 4-[[5-amino-1-(1,2,3-thiadiazol-4-ylcarbonyl)-1H-1,2,4-triazol-3-yl]amino]-benzenesulfonamide]
14 | 2.6 µM | ~100 µM | – | CCCCC1CCC(C(=O)n2nc(Nc3ccc(S(N)(=O)=O)cc3)nc2N)CC1 (centres unmarked) [Cpd 48, 4-[[5-amino-1-[(4-butylcyclohexyl)carbonyl]-1H-1,2,4-triazol-3-yl]amino]-benzenesulfonamide]
15 | 2.21 µM | > 10 µM | – | Nc1nc(Nc2ccc(S(N)(=O)=O)cc2)n(C(=O)c2c(F)cccc2F)n1 [Cpd 122, 4-[[3-amino-1-(2,6-difluorobenzoyl)-1H-1,2,4-triazol-5-yl]amino]-benzenesulfonamide]
16 | 1.56 µM | 18.6 µM | – | Cc1nnsc1C(=O)n1nc(Nc2ccc(S(N)(=O)=O)cc2)nc1N [Cpd 36, 4-[[5-amino-1-[(4-methyl-1,2,3-thiadiazol-5-yl)carbonyl]-1H-1,2,4-triazol-3-yl]amino]-benzenesulfonamide]
17 | 1.54 µM | 0.92 µM | 7.83 µM | Nc1nc(Nc2ccc(S(=O)(=O)O)cc2)nn1C(=O)c1c(F)cccc1F [Cpd 59, 4-[[5-amino-1-(2,6-difluorobenzoyl)-1H-1,2,4-triazol-3-yl]amino]-benzenesulfonic Acid]
18 | 0.55 µM | 14 µM | 6.1 µM | Nc1nc(Nc2ccc(S(N)(=O)=O)cc2)nn1C(=O)c1c(F)ccc([N+](=O)[O-])c1F [Cpd 54, 4-[[5-amino-1-(2,6-difluoro-3-nitrobenzoyl)-1H-1,2,4-triazol-3-yl]amino]-benzenesulfonamide]
19 | 0.522 µM | 2.68 µM | – | Nc1nc(Nc2ccc(S(N)(=O)=O)cc2)nn1C(=O)/C=C/c1c(F)cccc1F [Cpd 44, 4-[[5-amino-1-[(2E)-3-(2,6-difluorophenyl)-1-oxo-2-propenyl]-1H-1,2,4-triazol-3-yl]amino]-benzenesulfonamide]
20 | 0.195 µM | 11.1 µM | – | Nc1nc(Nc2ccc(S(N)(=O)=O)cc2)nn1C(=O)Cc1cccs1 [Cpd 40, 4-[[5-amino-1-(2-thienylacetyl)-1H-1,2,4-triazol-3-yl]amino]-benzenesulfonamide]
